Experimental data taken from ChEMBL document CHEMBL1201862, “PubChem BioAssay data set” (2004).
The source made the active and inactive calls.

How the values were obtained:
[1] = target: T1, RNA-binding protein pos-1 (Caenorhabditis elegans, UniProt G5EF15); assay: disruptors of C. elegans POS-1 RNA interaction – biochemical, fluorescence polarization, dose response (AID 1964);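 further: purified POS-1 fused to maltose binding protein made in E. coli; potency of compounds blocking POS-1 binding to fluorescent RNA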
T1 sequence (G5EF15 whole entry): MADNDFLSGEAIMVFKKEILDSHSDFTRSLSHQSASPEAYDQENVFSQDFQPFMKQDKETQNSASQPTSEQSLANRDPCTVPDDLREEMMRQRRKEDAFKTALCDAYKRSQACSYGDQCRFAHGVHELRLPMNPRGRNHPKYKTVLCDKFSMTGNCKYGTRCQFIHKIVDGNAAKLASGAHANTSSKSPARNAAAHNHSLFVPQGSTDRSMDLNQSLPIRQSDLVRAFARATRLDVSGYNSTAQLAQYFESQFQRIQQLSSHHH

[2] = target: T2, Zinc finger protein mex-5 (Caenorhabditis elegans, UniProt Q9XUB2); assay: potency of MEX-5 RNA-binding blockers – biochemical, C. elegans, fluorescence polarization, dose response (AID 1960)
T2 sequence (Q9XUB2 whole entry): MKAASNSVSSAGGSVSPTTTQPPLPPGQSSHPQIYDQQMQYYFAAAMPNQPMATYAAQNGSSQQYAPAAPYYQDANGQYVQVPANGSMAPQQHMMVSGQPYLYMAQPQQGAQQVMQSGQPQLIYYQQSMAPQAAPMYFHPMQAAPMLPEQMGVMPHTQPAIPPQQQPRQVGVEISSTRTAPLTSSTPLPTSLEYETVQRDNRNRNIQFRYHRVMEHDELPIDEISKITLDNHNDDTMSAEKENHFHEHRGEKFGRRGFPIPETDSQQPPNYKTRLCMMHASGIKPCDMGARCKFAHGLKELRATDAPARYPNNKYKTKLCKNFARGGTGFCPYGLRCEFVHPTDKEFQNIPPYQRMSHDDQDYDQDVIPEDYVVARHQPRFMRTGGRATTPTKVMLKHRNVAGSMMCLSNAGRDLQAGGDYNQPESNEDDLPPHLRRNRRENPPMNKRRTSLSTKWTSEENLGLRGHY

[3] = target: T3, High affinity choline transporter 1 (Homo sapiens, UniProt Q9GZV3); assay: human choline transporter blockers, potency – cell-based, 5-point CRC, membrane potential dye, dose response (AID 504840); assay type: functional
T3 sequence (Q9GZV3 whole entry): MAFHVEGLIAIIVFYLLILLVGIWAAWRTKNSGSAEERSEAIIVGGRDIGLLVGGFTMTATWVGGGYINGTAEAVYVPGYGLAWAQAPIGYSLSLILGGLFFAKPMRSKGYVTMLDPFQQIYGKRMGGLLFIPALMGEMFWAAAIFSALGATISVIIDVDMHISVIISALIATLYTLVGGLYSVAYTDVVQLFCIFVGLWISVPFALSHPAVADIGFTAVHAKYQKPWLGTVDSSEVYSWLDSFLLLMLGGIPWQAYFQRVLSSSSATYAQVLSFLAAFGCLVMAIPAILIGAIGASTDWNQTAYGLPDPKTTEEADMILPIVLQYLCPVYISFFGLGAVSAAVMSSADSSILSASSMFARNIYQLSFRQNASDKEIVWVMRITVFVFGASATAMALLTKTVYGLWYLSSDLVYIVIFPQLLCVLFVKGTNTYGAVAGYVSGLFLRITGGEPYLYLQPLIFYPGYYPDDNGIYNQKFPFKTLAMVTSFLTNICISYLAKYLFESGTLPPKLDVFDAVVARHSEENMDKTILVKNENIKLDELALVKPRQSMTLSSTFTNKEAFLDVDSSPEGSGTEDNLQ

[4] = ATP-based viability loss in HepG2 cells – cell-based, CellTiter-Glo luminescence, dry powder, set 3, cytotoxicity control, dose response (AID 720594); assay type: functional
[5] = ATP-based viability loss in HEK293T cells – cell-based, CellTiter-Glo luminescence, dry powder, set 2, cytotoxicity control, dose response (AID 720595); assay type: functional; conditions: HEK293
[6] = ATP-based viability loss in HeLa cells – cell-based, CellTiter-Glo luminescence, dry powder, set 2, cytotoxicity control, dose response (AID 720593); assay type: functional
[7] = target: NAD-dependent protein deacylase sirtuin-5, mitochondrial (Homo sapiens, UniProt Q9NXA8); assay: sirtuin-5 deacylation blockers, concentration series – biochemical, fluorescence imaging, cherry-pick, set 5, dose response (AID 720591);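 further: desuccinylation of succinyl peptide AMC substrate read as fluorescence after trypsin release; potency of inhibitors that lower fluorescence and may act on trypsin instead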
Paired box protein Pax-8 = Paired box protein Pax-8 (Homo sapiens, UniProt Q06710); assay: PAX8 transcriptional activity inhibition in RMG-I – RMG-I cells, luciferase, cherry-pick, dose response (AID 687027); assay type: functional, cell-based;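 further: luciferase reporter driven by Pax8 target thyroperoxidase promoter measured by SteadyGlo luminescence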
[8] = inhibitors acting on PAX2 in cells – cell-based, plate reader, dry powder samples, selectivity assay for PAX8 inhibitor project, dose response (AID 743048); assay type: functional;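 further: HEK293 cells carrying a WT1 promoter luciferase reporter driven by expressed Pax2; potency is for inhibition of Pax2 driven reporter signal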
[9] = COV362 cell viability loss – plate reader, dry powder, SA12, cytotoxicity control for PAX8 inhibitor project, dose response (AID 743144); assay type: functional, cell-based
[10] = A2780 cell killing – plate reader, dry powder samples, cytotoxicity control, dose response (AID 743046); assay type: functional, cell-based
[11] = OVCAR-3 cell viability loss – plate reader, dry powder samples, PAX8 inhibitor project, dose response (AID 743044); assay type: functional, cell-based
[12] = IGROV1 cell killing – plate reader, dry powder samples, PAX8 inhibitor project, dose response (AID 743043); assay type: functional, cell-based; conditions: IGROV-1
[13] = OVCAR4 cell viability loss – plate reader, dry powder, SA11, cytotoxicity control for PAX8 inhibitor project, dose response (AID 743150); assay type: functional, cell-based; conditions: OVCAR-4
[14] = COV434 cell viability loss – plate reader, dry powder, SA7, cytotoxicity control for PAX8 inhibitor project, dose response (AID 743145); assay type: functional, cell-based
[15] = OV-90 cell viability loss – plate reader, dry powder, SA8, PAX8 inhibitor project, dose response (AID 743149); assay type: functional, cell-based
[16] = PAX8-dependent cell viability loss – plate reader, dry powder, dose response (AID 743049); assay type: functional, cell-based
[17] = target: Glutathione-S-transferase (Schistosoma japonicum, UniProt Q26513); assay: GST-antibody interaction or FRET quenching – biochemical, TR-FRET, artefact control for Vif-APOBEC3G degradation inhibitor project, dose response (AID 1117362); assay type: functional
[18] = viability loss in A549 lung cells – cell-based, 24 h, CellTiter-Glo luminescence, cherry-picks, cytotoxicity control, dose response (AID 1053115); assay type: functional; conditions: A549, 24 h

Chain of NAD-dependent protein deacylase sirtuin-5, mitochondrial (Q9NXA8 whole entry): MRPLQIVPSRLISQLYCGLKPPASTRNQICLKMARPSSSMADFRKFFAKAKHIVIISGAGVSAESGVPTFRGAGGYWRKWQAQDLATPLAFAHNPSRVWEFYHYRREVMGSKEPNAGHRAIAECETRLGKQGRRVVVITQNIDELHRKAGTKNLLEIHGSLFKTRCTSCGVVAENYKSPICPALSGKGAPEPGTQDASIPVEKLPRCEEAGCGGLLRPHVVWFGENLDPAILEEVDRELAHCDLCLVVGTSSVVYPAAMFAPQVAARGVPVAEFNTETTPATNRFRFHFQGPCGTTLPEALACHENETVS
Chain of Glutathione-S-transferase (Q26513 whole entry): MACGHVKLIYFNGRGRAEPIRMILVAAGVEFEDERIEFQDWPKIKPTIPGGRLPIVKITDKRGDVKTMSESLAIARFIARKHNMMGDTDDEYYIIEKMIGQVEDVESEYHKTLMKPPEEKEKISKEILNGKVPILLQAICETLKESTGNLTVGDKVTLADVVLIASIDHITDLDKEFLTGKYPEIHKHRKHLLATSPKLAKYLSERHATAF
Chain of Paired box protein Pax-8 (Q06710 whole entry): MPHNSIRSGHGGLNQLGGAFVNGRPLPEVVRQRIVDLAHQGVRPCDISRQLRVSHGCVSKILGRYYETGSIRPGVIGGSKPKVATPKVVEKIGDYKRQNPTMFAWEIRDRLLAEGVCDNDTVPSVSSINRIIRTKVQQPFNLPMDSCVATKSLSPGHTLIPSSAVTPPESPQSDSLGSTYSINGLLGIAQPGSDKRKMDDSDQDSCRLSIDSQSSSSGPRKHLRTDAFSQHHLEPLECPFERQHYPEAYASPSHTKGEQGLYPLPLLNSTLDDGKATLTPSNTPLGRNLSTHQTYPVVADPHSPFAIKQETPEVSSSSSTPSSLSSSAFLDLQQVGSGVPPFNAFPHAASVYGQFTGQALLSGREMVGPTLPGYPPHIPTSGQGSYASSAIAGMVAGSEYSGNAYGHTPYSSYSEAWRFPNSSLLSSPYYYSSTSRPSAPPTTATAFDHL

## CCn1c2ccccc2c(=O)c2ccccc21
[1]
  EC50: > 300 µM (not active)
[2]
  EC50: > 300 µM (not active)
[3]
  IC50: 15.1 µM (active)
cells
  AC50: 1.59 µM (active)

## CC(C)C(=O)NC(c1ccco1)c1cc(Cl)c2cccnc2c1O (stereo not given)
[4]
  AC50: > 52 µM (inactive)
[5]
  AC50: 8.31 µM (active)
[6]
  AC50: 28.3 µM (active)

## COc1ccc(C)cc1NC(=O)CCN1CC(C)OC(C)C1 (stereo not given)
[7]
  AC50: > 30 µM (inactive)

## COc1cc(/C=C2\SC(=S)N(CCC(=O)N3CCCCC3)C2=O)cc(OC)c1OC
Paired box protein Pax-8
  AC50: 8.62 µM (active)
[8]
  AC50: 69.6 µM (active)
[9]
  AC50: 31.2 µM (active)
[10]
  AC50: 26.3 µM (active)
[11]
  AC50: 15.5 µM (active)
[12]
  AC50: 13.1 µM (active)
[13]
  AC50: 43 µM (active)
[14]
  AC50: 26.8 µM (active)
[15]
  AC50: 35.9 µM (active)
[16]
  AC50: 15 µM (active)

## COC(=O)/C(=N/Nc1ccccc1C)N1CCCc2ccccc21
[17]
  IC50: 1.9 µM (active)

## OC[C@@H]1Nc2ccc(-c3ccccc3)cc2[C@H]2[C@@H]1CCN2Cc1ccc(F)cc1
[18]
  AC50: 47.6 µM (active)
